{"source": "patent US20150322403A1", "about": "“REGULATION OF EUKARYOTIC GENE EXPRESSION BY RIBOSOMAL READING-FRAME SWITCH EFFICIENCY CONTROL VIA REGULATORY ELEMENT UPSTREAM OF THE FRAMESHIFTING SITE” (NATIONAL CHUNG HSING UNIVERSITY, priority 2014, published 2015)", "key": {"[1]": {"test_system": "theo-OFF2 element", "test": "-1 PRF activity analysis, upstream theo-OFF2 element, wheat germ extract", "conditions": "wheat germ lysate, compared with reticulocyte lysate"}, "[2]": {"test_system": "theo-OFF1 element (theophylline aptamer)", "test": "in vitro -1 PRF activity analysis, upstream theo-OFF1 element, reticulocyte lysate", "conditions": "DU177 pseudoknot stimulator, increasing amounts of theophylline", "text": "The boxed nucleotides were deleted in the negative control theo-mOFF1 element."}, "[3]": {"test_system": "theo-ON element", "test": "in vitro -1 PRF activity analysis, upstream theo-ON element, reticulocyte lysate", "conditions": "DU177 pseudoknot stimulator"}, "[4]": {"test_system": "theo-OFF2 element and SAH-sensing pseudoknot stimulator", "test": "-1 PRF activity, theo-OFF2 plus SAH-sensing pseudoknot, wheat germ lysate", "format": "biochemical", "conditions": "theo-OFF2 fused with SAH-dependent stimulator", "description": "We also fused theo-OFF2 with an SAH-dependent −1 PRF stimulator and examined the ligand-dependent −1 PRF activity in vitro using wheat germ lysate."}, "[5]": {"test_system": "GlcT-OFF RNA element (RAT sequence) upstream of the slippery site", "test": "in vitro -1 PRF activity analysis, upstream GlcT-OFF element, reticulocyte lysate", "format": "biochemical", "conditions": "DU177 pseudoknot stimulator, increasing amounts of protein", "description": "(§1) Mfold was used to predict structures and free energies of the attenuator and anti-attenuator hairpins.\nAs the ribonucleic-antiterminator (RAT) sequence of Bacillus subtilis ptsGHI operon adopts an unstable internal loop conformation and can be stabilized by the binding of GlcT antiterminator protein (Langbein, I. et al, J. Mol. Biol. 293, 795-805, 1999), we designed a chimeric RNA element containing an RAT sequence (GlcT-OFF) with the 3′-side of RAT internal loop embedded in a stable hairpin stem and placed the chimeric RNA element upstream of the slippery site with a potent downstream −1 PRF stimulator (FIG. 3A). We rationalized that the engineered hairpin is the dominant conformation and serves as an upstream −1 PRF attenuator, whereas the addition of GlcT protein should disrupt the attenuator hairpin via RAT-GlcT complex formation and thus restore −1 PRF activity.\nWe then designed the second chimera to down-regulate the −1 PRF by the formation of an efficient attenuator hairpin promoted by the same RNA-protein interactions (FIG. 3A)."}, "[6]": {"test_system": "GlcT-ON RNA element", "test": "in vitro -1 PRF activity analysis, upstream GlcT-ON element, reticulocyte lysate", "format": "biochemical", "conditions": "DU177 pseudoknot stimulator, increasing amounts of protein", "description": "as §1\nTherefore, the GlcT-ON RNA element is embedded with three potential RNA motifs; that is, an RAT internal loop, an anti-attenuator hairpin and an efficient −1 PRF attenuator hairpin with the component of the anti-attenuator hairpin being overlapped with the other two motifs. Without the GlcT protein, this anti-attenuator hairpin might be the dominant conformation. Upon GlcT protein addition, the equilibrium might be driven by RNA-protein interaction to disrupt the anti-attenuator hairpin stem and thus release its 3′-side to facilitate the formation of an efficient −1 PRF attenuator hairpin.\nTogether, these proof-of-principle experiments indicate that −1 PRF activity can be regulated in-trans via a set of RNA-protein interactions designed to control the formation of an upstream −1 PRF attenuation hairpin."}}, "data": [{"molecule": "Cn1c(=O)c2[nH]cnc2n(C)c1=O", "note": "[theophylline]", "values": [{"measurement": "dynamic range of theophylline-dependent -1 PRF activity, theo-OFF2", "setting": "[1]", "value": "even higher dynamic range"}, {"measurement": "in vitro -1 PRF activity of reporter harboring theo-OFF1", "setting": "[2]", "value": "up-regulated"}, {"measurement": "-1 PRF activity of reporter with theo-ON", "setting": "[3]", "value": "down-regulation"}]}, {"molecule": "Nc1ncnc2c1ncn2[C@@H]1O[C@H](CSCC[C@H](N)C(=O)O)[C@@H](O)[C@H]1O", "note": "[SAH]", "values": [{"measurement": "-1 frameshifting efficiency in wheat germ lysate", "setting": "[4]", "value": "only mildly increased"}]}, {"molecule": "GlcT protein: GlcT antiterminator protein binding the RAT sequence of Bacillus subtilis ptsGHI operon (protein, UniProt O31691 1-281, looked up) PtsGHI operon antiterminator: MNGSFTVKKVLNNNVLIASHHKYSEVVLIGKGIGFGKKQDDVIEDKGYDKMFILKDEKEQKQFKKLLDYVDEKLVDISNDVIYHISNRTNHSLNEHIHIALTDHIAFAIKRQQQGFDMKNPFLMETQSLYPEEYQIAKEVIDMINEKAGLCLPEGEIGFIALHIHSALTNRPLSEVNQHSQLMAQLVEVIEDSFQMKVNKESVNYLRLIRHIRFTIERIKKEEPTKEPEKLMLLLKNEYPLCYNTAWKLIKILQQTLKKPVHEAEAVYLTLHLYRLTNKIS", "values": [{"measurement": "in vitro -1 PRF efficiency of reporter containing GlcT-OFF", "setting": "[5]", "value": "up-regulated"}, {"measurement": "in vitro -1 PRF activity of reporter containing GlcT-ON", "setting": "[6]", "value": "repressed"}]}]}
